Drawing on PubChem BioAssay AID270 (DTP/NCI, 2004), this text covers T/C for 18 compounds.

Values joined by “and” are separate entries in the source; they are usually repeats but may differ in a detail not shown here. Identical values can stand only once. Records with an inconclusive call do not appear.

For this assay, the system named is BDF1 mice, s.c. Lewis lung carcinoma, T/C %. The experiment in a line: NCI In Vivo Anticancer Drug Screen. Data for tumor model Lewis Lung Carcinoma (subcutaneous) in B6D2F1 (BDF1) mice. Summed up: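 Readout: survival or tumor size, expressed as treated (T) over vehicle control (C). Transplantable tumor implanted in mice; compound given to the treated group.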

[1] abbreviates: endpoint: mean tumor weight, dose: 25.0 mg/kg/injection, schedule: Q01DX011 (ip), vehicle: saline, higher = larger tumour.
Setting [2] is: endpoint: mean tumor weight, dose: 50.0 mg/kg/injection, schedule: Q01DX011 (ip), vehicle: saline, higher = larger tumour.
[3] abbreviates: endpoint: mean tumor weight, dose: 100.0 mg/kg/injection, schedule: Q01DX011 (ip), vehicle: saline, higher = larger tumour.

Regarding `CC(=O)OC(C)(C)/C=C/C(=O)[C@](C)(O)[C@H]1[C@H](O)C[C@@]2(C)[C@@H]3CC=C4[C@@H](C=C(O)C(=O)C4(C)C)[C@]3(C)C(=O)C[C@]12C`, the T/C was 59 % of control (endpoint: mean tumor weight, dose: 0.4 mg/kg/injection, schedule: Q01DX011 (ip), vehicle: carboxymethylcellulose (CMC), higher = larger tumour); 78 % of control (endpoint: mean tumor weight, dose: 0.8 mg/kg/injection, schedule: Q01DX011 (ip), vehicle: carboxymethylcellulose (CMC), higher = larger tumour); 26 % of control (endpoint: mean tumor weight, dose: 1.6 mg/kg/injection, schedule: Q01DX011 (ip), vehicle: carboxymethylcellulose (CMC), higher = larger tumour); 27 % of control (endpoint: mean tumor weight, dose: 3.2 mg/kg/injection, schedule: Q01DX011 (ip), vehicle: carboxymethylcellulose (CMC), higher = larger tumour); 58 % of control (endpoint: mean tumor weight, dose: 3.2 mg/kg/injection, schedule: Q01DX011 (ip), vehicle: saline, higher = larger tumour); 33 % of control (endpoint: mean tumor weight, dose: 6.4 mg/kg/injection, schedule: Q01DX011 (ip), vehicle: saline, higher = larger tumour). Moreover, where the note is “endpoint: mean tumor weight, dose: 12.8 mg/kg/injection, schedule: Q01DX011 (ip), vehicle: saline, higher = larger tumour”, the T/C was 52 % of control.
With `CCc1c(CC(=O)O)c2cc(C)ccc2n1Cc1ccc(Cl)cc1`, the T/C runs as follows: (endpoint: mean tumor weight, dose: 12.5 mg/kg/injection, schedule: Q01DX011 (ip), vehicle: saline, higher = larger tumour) 72 % of control; under setting [1], 104 % of control; under setting [2], 70 % of control.
For `COC1=C(N)C(=O)c2nc(-c3nc(C(=O)O)c(C)c(-c4ccc(OC)c(OC)c4O)c3N)ccc2C1=O`, the T/C runs as follows: (endpoint: mean tumor weight, dose: 0.06 mg/kg/injection, schedule: Q01DX011 (ip), vehicle: water, higher = larger tumour) 68 % of control; (endpoint: mean tumor weight, dose: 0.12 mg/kg/injection, schedule: Q01DX011 (ip), vehicle: water, higher = larger tumour) 56 % of control; (endpoint: mean tumor weight, dose: 0.25 mg/kg/injection, schedule: Q01DX011 (ip), vehicle: water, higher = larger tumour) 42 % of control; (endpoint: median survival time, dose: 62.5 micrograms/kg/injection, schedule: Q01DX009 (ip), vehicle: saline, higher = longer survival) 98 % of control; (endpoint: median survival time, dose: 125.0 micrograms/kg/injection, schedule: Q01DX009 (ip), vehicle: saline, higher = longer survival) 112 % of control; (endpoint: median survival time, dose: 250.0 micrograms/kg/injection, schedule: Q01DX009 (ip), vehicle: saline, higher = longer survival) 98 % of control.
`O=NN(CCCl)C(=O)Nc1ccc2[nH]c3ccccc3c2c1`: the T/C (endpoint: median survival time, dose: 4.0 mg/kg/injection, schedule: Q01DX009 (ip), vehicle: Klucel (hydroxypropylcellulose) (HPC), higher = longer survival) was 119 % of control; the T/C (endpoint: median survival time, dose: 8.12 mg/kg/injection, schedule: Q01DX009 (ip), vehicle: Klucel (hydroxypropylcellulose) (HPC), higher = longer survival) is 110 % of control; the T/C (endpoint: median survival time, dose: 32.5 mg/kg/injection, schedule: Q01DX009 (ip), vehicle: Klucel (hydroxypropylcellulose) (HPC), higher = longer survival) is 97 % of control.
For the compound `CN1CC(=O)NC1=O`, the T/C (endpoint: mean tumor weight, dose: 2000.0 mg/kg/injection, schedule: Q01DX011 (ip), vehicle: saline, higher = larger tumour) was 99 % of control and 124 % of control.
On to `CC[C@](O)(C(=O)O)c1cc2n(c(=O)c1CO)Cc1cc3ccccc3nc1-2`, for which the T/C was 117 % of control (endpoint: median survival time, dose: 1.0 mg/kg/injection, schedule: Q01DX009 (ip), vehicle: saline, higher = longer survival) and 92 % of control (endpoint: median survival time, dose: 2.0 mg/kg/injection, schedule: Q01DX009 (ip), vehicle: saline, higher = longer survival).
On to `CCO/C=C1\SC(=S)N(c2cccc(OC)c2)C1=O`, for which the T/C runs as follows: (endpoint: median survival time, dose: 50.0 mg/kg/injection, schedule: Q01DX001 (ip), vehicle: Klucel (hydroxypropylcellulose) (HPC), higher = longer survival) 101 % of control; (endpoint: median survival time, dose: 100.0 mg/kg/injection, schedule: Q01DX001 (ip), vehicle: Klucel (hydroxypropylcellulose) (HPC), higher = longer survival) 104 % of control; (endpoint: median survival time, dose: 200.0 mg/kg/injection, schedule: Q01DX001 (ip), vehicle: Klucel (hydroxypropylcellulose) (HPC), higher = longer survival) 102 % of control; (endpoint: median survival time, dose: 400.0 mg/kg/injection, schedule: Q01DX001 (ip), vehicle: Klucel (hydroxypropylcellulose) (HPC), higher = longer survival) 101 % of control.
Take `Cc1ccc(S(=O)(=O)[O][Pb]([CH3])([CH3])[CH3])cc1`: the T/C (endpoint: median survival time, dose: 0.18 mg/kg/injection, schedule: Q01DX009 (ip), vehicle: saline, higher = longer survival) was 98 % of control and 122 % of control; the T/C (endpoint: median survival time, dose: 0.37 mg/kg/injection, schedule: Q01DX009 (ip), vehicle: saline, higher = longer survival) was 108 % of control; the T/C (endpoint: median survival time, dose: 0.75 mg/kg/injection, schedule: Q01DX009 (ip), vehicle: saline, higher = longer survival) was 116 % of control; the T/C (endpoint: median survival time, dose: 1.5 mg/kg/injection, schedule: Q01DX009 (ip), vehicle: saline, higher = longer survival) was 109 % of control.
For `CCC1NC(=O)C(NC(=O)c2ncccc2O)C(C)OC(=O)C(c2ccccc2)NC(=O)C2CC(=O)CCN2C(=O)C(Cc2ccccc2)N(C)C(=O)C2CCCN2C1=O` (centres undefined) (tested in a mixture with another compound), the T/C is 102 % of control (endpoint: median survival time, dose: 9.4 mg/kg/injection, schedule: Q01DX009 (ip), vehicle: Klucel (hydroxypropylcellulose) (HPC), higher = longer survival); 87 % of control (endpoint: median survival time, dose: 18.75 mg/kg/injection, schedule: Q01DX009 (ip), vehicle: Klucel (hydroxypropylcellulose) (HPC), higher = longer survival); 94 % of control (endpoint: median survival time, dose: 37.5 mg/kg/injection, schedule: Q01DX009 (ip), vehicle: Klucel (hydroxypropylcellulose) (HPC), higher = longer survival).
On to `Nc1ncnc2c1ncn2C1OC(CO)C(O)C1O` (centres undefined), for which the T/C by setting is: under setting [2], 108 % of control; under setting [3], 103 % of control; (endpoint: mean tumor weight, dose: 200.0 mg/kg/injection, schedule: Q01DX011 (ip), vehicle: saline, higher = larger tumour) 102 % of control; (endpoint: mean tumor weight, dose: 400.0 mg/kg/injection, schedule: Q01DX011 (ip), vehicle: saline, higher = larger tumour) 93 % of control; (endpoint: median survival time, dose: 70.0 mg/kg/injection, schedule: Q03HX024 (ip), vehicle: saline with Tween-80, higher = longer survival) 94 % of control; (endpoint: median survival time, dose: 80.0 mg/kg/injection, schedule: Q03HX024 (ip), vehicle: saline with Tween-80, higher = longer survival) 98 % of control. In addition, the T/C is, setting by setting: (endpoint: median survival time, dose: 160.0 mg/kg/injection, schedule: Q03HX024 (ip), vehicle: saline with Tween-80, higher = longer survival) 104 % of control; (endpoint: median survival time, dose: 240.0 mg/kg/injection, schedule: Q03HX024 (ip), vehicle: saline with Tween-80, higher = longer survival) 86 % of control.
Consider `Cc1nn(-c2ccccc2)c(N)c1C#N`, for which the T/C was 94 % of control (endpoint: median survival time, dose: 12.5 mg/kg/injection, schedule: Q01DX009 (ip), vehicle: other, higher = longer survival); 98 % of control and 100 % of control (endpoint: median survival time, dose: 25.0 mg/kg/injection, schedule: Q01DX009 (ip), vehicle: other, higher = longer survival); 97 % of control (endpoint: median survival time, dose: 50.0 mg/kg/injection, schedule: Q01DX009 (ip), vehicle: other, higher = longer survival); 100 % of control (endpoint: median survival time, dose: 100.0 mg/kg/injection, schedule: Q01DX009 (ip), vehicle: other, higher = longer survival); 100 % of control (endpoint: median survival time, dose: 200.0 mg/kg/injection, schedule: Q01DX009 (ip), vehicle: other, higher = longer survival); 98 % of control (endpoint: median survival time, dose: 400.0 mg/kg/injection, schedule: Q01DX009 (ip), vehicle: other, higher = longer survival).
For `N=C(N)c1ccc(OCCCOc2ccc(C(=N)N)cc2Br)c(Br)c1`, the T/C (endpoint: median survival time, dose: 6.25 mg/kg/injection, schedule: Q01DX009 (ip), vehicle: saline, higher = longer survival) is 122 % of control.
For `CC(C)(C)C1CCC(NC(=O)N(CCCl)N=O)CC1` (centres undefined), the T/C is 118 % of control (endpoint: median survival time, dose: 140.0 mg/kg/injection, schedule: Q01DX001 (ip), vehicle: gum acacia, higher = longer survival) and 121 % of control (endpoint: median survival time, dose: 315.0 mg/kg/injection, schedule: Q01DX001 (ip), vehicle: gum acacia, higher = longer survival).
For the compound `NCCc1ccc(O)c(O)c1`, the T/C is 119 % of control (endpoint: median survival time, dose: 37.0 mg/kg/injection, schedule: Q01DX009 (ip), vehicle: saline, higher = longer survival); 109 % of control (endpoint: median survival time, dose: 75.0 mg/kg/injection, schedule: Q01DX009 (ip), vehicle: saline, higher = longer survival); 88 % of control (endpoint: median survival time, dose: 150.0 mg/kg/injection, schedule: Q01DX009 (ip), vehicle: saline, higher = longer survival); 107 % of control (endpoint: median survival time, dose: 600.0 mg/kg/injection, schedule: Q01DX009 (ip), vehicle: saline, higher = longer survival).
Take `c1ccc([As+](c2ccccc2)(c2ccccc2)c2ccccc2)cc1`: the T/C was 97 % of control (endpoint: median survival time, dose: 1.87 mg/kg/injection, schedule: Q01DX009 (ip), vehicle: Klucel (hydroxypropylcellulose) (HPC), higher = longer survival) and 95 % of control (endpoint: median survival time, dose: 3.75 mg/kg/injection, schedule: Q01DX009 (ip), vehicle: Klucel (hydroxypropylcellulose) (HPC), higher = longer survival).
Consider `CC(C)=CC(=O)OCC[N+](C)(C)C`, for which the T/C is 96 % of control (endpoint: median survival time, dose: 1.56 mg/kg/injection, schedule: Q01DX009 (ip), vehicle: saline, higher = longer survival); 103 % of control (endpoint: median survival time, dose: 3.12 mg/kg/injection, schedule: Q01DX009 (ip), vehicle: saline, higher = longer survival); 103 % of control (endpoint: median survival time, dose: 12.5 mg/kg/injection, schedule: Q01DX009 (ip), vehicle: saline, higher = longer survival); 113 % of control (endpoint: median survival time, dose: 25.0 mg/kg/injection, schedule: Q01DX009 (ip), vehicle: saline, higher = longer survival).
Take `C/C=C1\CNC2Cc3c([nH]c4ccccc34)C(=O)CC1C2C(=O)OC` (centres undefined): the T/C is, setting by setting: under setting [1], 88 % of control; under setting [2], 97 % of control; under setting [3], 84 % of control.
As to `N#CC(Cc1ccccc1)C(=O)O` (centres undefined), the T/C reads like this: (endpoint: mean tumor weight, dose: 55.0 mg/kg/injection, schedule: Q01DX011 (ip), vehicle: other, higher = larger tumour) 80 % of control; (endpoint: mean tumor weight, dose: 83.0 mg/kg/injection, schedule: Q01DX011 (ip), vehicle: other, higher = larger tumour) 68 % of control; (endpoint: mean tumor weight, dose: 125.0 mg/kg/injection, schedule: Q01DX011 (ip), vehicle: other, higher = larger tumour) 75 % of control and 82 % of control; (endpoint: mean tumor weight, dose: 187.0 mg/kg/injection, schedule: Q01DX011 (ip), vehicle: other, higher = larger tumour) 46 % of control; (endpoint: mean tumor weight, dose: 250.0 mg/kg/injection, schedule: Q01DX011 (ip), vehicle: other, higher = larger tumour) 63 % of control; (endpoint: mean tumor weight, dose: 500.0 mg/kg/injection, schedule: Q01DX011 (ip), vehicle: other, higher = larger tumour) 19 % of control.
